Laboratory results taken from patent US6506901B2, “Substituted 2-(S)-hydroxy-3-(piperidin-4-yl-methylamino)-propyl ethers and substituted 2-aryl-2-(R)-hydroxy-1-(piperidin-4-yl-methyl)-ethylamine β-3 adrenergic receptor agonists” (Wyeth, priority 2000, dated 2003).
Where a name gives a salt, the structure may show the parent alone.

Columns and labels:
human β3 receptors = molecular target: T1, human β3 receptors (Homo sapiens, UniProt P13945); assay: cAMP response (SPA) in CHO cells expressing cloned human β3 adrenergic receptor; format: cell-based; conditions: for EC50: CHO cells expressing human β3 receptor, cAMP, 30 min incubation, 10^−9 M to 10^−5 M; for IA(β3): maximal response compared to the maximal response of isoproterenol at 10^−5 M
T1 construct: Full length β3 AR clones (402 amino acids) containing the last 6 amino acids of hβ3—AR; expressed in transfected cells; host or cells: CHO cells
Procedure, shortened: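 CHO cells transfected with cloned human β3-AR were incubated with compound at 37° C for 30 min, stopped with 0.2N HCl and neutralized. cAMP was measured by SPA. Activity is expressed as per cent of the maximal isoproterenol (10^−5 M) response.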

β3 human transgenic mice = assay: Thermogenesis (Oxymax indirect calorimeter) in β3 transgenic (Tg) mice; format: in vivo, mice (FVB); conditions: Mus musculus, ip, mouse type homo; IP 10 mg/kg; percent increase in thermogenesis over baseline
Description: Evaluation in β3 Knockout(KO) and β3 Transgenic(Tg) Mice: The ability of compounds of this invention to treat or inhibit disorders related to insulin resistance or hyperglycemia was also confirmed with representative compounds of this invention in an in vivo standard pharmacological test procedure which compared thermogenesis in transgenic mice (Tg mice) and β3-knockout mice (KO mice).
β3-Adrenergic receptor knockout mice and β3 human transgenic mice are created on an inbred FVB background (Susulic, V. S., et.al., J. Biol. Chem., 1995, 270 (49), 29483-29492). Female FVB β3 transgenic and β3 knockout mice were used to determine in vivo activity and selectivity of β3 agonists. […] These compounds were also selective in being 100-fold less responsive and partial agonists when tested in β1 and β2 transfected CHO cells. Compounds were tested for increased thermogenesis using the Oxymax indirect calorimeter (Columbus Instruments, Columbus, Ohio). Fed animals were placed in chambers for 3 hours to obtain baseline O2 and CO2 values. Eight fed mice were weighed in pairs and placed in 4 chambers, two per chamber. The relative gas content of each chamber was sampled and recorded at 10 to 12 minute intervals. For each sample, energy expenditure values were calculated by the Oxymax and expressed as kcal/hr. After 3 hours of baseline measurement, the mice were removed, treated and replaced in the chambers. The β3 agonists were injected at doses between 0.1 and 20 mg/kg i.p. and between 1.0 and 30 mg/kg for oral administration. Compounds in 10 mM or 10 mg/ml DMSO solutions were suspended in 0.5% methylcellulose: 0.1% tween-80 and injected i.p. or administered by oral gavage. Some compounds were suspended in 5.0% tween-80 for oral administration. Post-treatment kcal/hr values were taken between 40 minutes and 2.5 hours later. The 6 to 10 sample sections of the pre-treatment and post-treatment periods, which appear to best represent stable resting thermogenesis, were selected. Each of these sample values was corrected for body weight and used such that each pair of mice serves as its own baseline for both T test and percent increase in thermogenesis calculations. An ANOVA and a one sided T test (H1: Post>Pre) are performed using the SAS software modified to down weight extreme values. In a separate set of calculations, values that appear to be too high to represent resting thermogenesis are discarded (activity monitor sampling associated spikes in thermogenesis with ambulatory activity). The mean baseline value for each chamber is subtracted from mean post-treatment value for that chamber. This baseline-subtracted value is divided by the mean baseline value and multiplied by 100 to obtain a percent increase in thermogenesis for each chamber. The combined mean percent increase, standard deviation, and standard error of the mean for each chamber is calculated. Compounds were considered active if they were able to produce a statistically significant 15% increase in thermogenesis in β3 transgenic mice and no significant increase in β3 knockout mice.

T1 sequence (P13945 whole entry): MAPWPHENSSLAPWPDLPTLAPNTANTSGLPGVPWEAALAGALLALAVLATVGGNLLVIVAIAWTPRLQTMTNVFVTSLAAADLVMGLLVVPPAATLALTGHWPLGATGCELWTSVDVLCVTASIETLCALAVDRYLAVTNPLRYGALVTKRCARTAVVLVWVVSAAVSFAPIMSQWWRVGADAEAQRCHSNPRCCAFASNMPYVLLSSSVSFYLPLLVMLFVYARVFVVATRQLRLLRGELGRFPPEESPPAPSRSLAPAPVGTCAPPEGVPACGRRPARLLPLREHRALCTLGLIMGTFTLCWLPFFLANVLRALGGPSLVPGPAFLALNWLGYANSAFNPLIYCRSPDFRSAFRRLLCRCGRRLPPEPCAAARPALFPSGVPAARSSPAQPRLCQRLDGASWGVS

Row | Compound | melting point | EC50 (human β3 receptors) | IA(β3) (human β3 receptors) | change in vivo at 10 mg/kg (β3 human transgenic mice)
1 | O=C(Nc1ccc(S(=O)(=O)N2CCC(CNC[C@H](O)COc3ccc(O)cc3)CC2)cc1)Nc1ccccn1 [Example 66, 1-[4-(4-{[(2S)-2-Hydroxy-3-(4-hydroxy-phenoxy)-proplamino]-methyl}-piperidine-1-sulfonyl)-phenyl]-3-pyridin-2-yl-urea] | 189 °C |  |  | 4%
2 | O=C(NCc1cc(F)ccc1F)Nc1ccc(S(=O)(=O)N2CCC(CNC[C@H](O)COc3ccc(O)cc3)CC2)cc1 [Example 77, 1-(2,5-Difluoro-benzyl)-3-[4-(4-{[(2S)-2-hydroxy-3-(4-hydroxy-phenoxy)-propylamino]-methyl}-piperidine-1-sulfonyl)-phenyl]-urea] |  |  |  | 4%
3 | CS(=O)(=O)Nc1cc(OC[C@@H](O)CNCC2CCN(S(=O)(=O)c3ccc(NC(=O)NCc4cc(F)ccc4F)cc3)CC2)ccc1O [Example 79, N-(5-{(2S)-3-[(1-{4-[3-(2,5-Difluoro-benzyl)-ureido]-benzenesulfonyl}-piperidin-4-ylmethyl)-amino]-2-hydroxy-propoxy}-2-hydroxy-phenyl)-methanesulfonamide] |  |  |  | 10%
4 | O=S(=O)(c1ccc(-n2cccn2)cc1)N1CCC(CNC[C@H](O)COc2ccc(O)cc2)CC1 [Example 93, 4-(2-Hydroxy-3-{[1-(4-pyrazol-1-yl-benzenesulfonyl)-piperidin-4-ylmethyl]-amino}-propoxy)-phenol] | 169 to 171 °C | 347 nM | 0.99 | 

Now from value to molecule, other results behind:

Row | melting point | EC50 (human β3 receptors) | IA(β3) (human β3 receptors) | Compound | change in vivo at 10 mg/kg (β3 human transgenic mice)
5 | 171 °C |  |  | O/N=C1\c2ccccc2-c2c(OC[C@@H](O)CNCC3CCN(c4ccnc5cc(C(F)(F)F)ccc45)CC3)cccc21 (as salt: hydrochloride) [Example 4, 4-((2S)-2-Hydroxy-3-{[1-(7-trifluoromethyl-quinolin-4-yl)-piperidin-4-ylmethyl]-amino}-propoxy)-fluoren-9-one Oxime] | 
6 | 137 to 138 °C |  |  | O[C@@H](CNCC1CCN(c2cc(C(F)(F)F)ccn2)CC1)COc1cccc2[nH]c3ccccc3c12 [Example 5, (2S)-1-(9H-Carbazol-4-yloxy)-3-[(4′-trifluoromethyl-3,4,5,6-tetrahydro-2H-[1,2′]bipyridinyl-4-ylmethyl)-amino]-propan-2-ol] | 
7 | 79 °C |  |  | O[C@@H](CNCC1CCN(CCC(F)(F)F)CC1)COc1ccc(Br)c2[nH]c3ccccc3c12 [Example 16, (2S)-1-(1-Bromo-9H-carbazol-4-yloxy)-3-{[1-(3,3,3-trifluoro-propyl)-piperidin-4-ylmethyl]-amino}-propan-2-ol] | 
8 | 110 °C | 1240 nM | 0.53 | OCCCCCCCCCCCCN1CCC(CNC[C@H](O)COc2cccc3[nH]c4ccccc4c23)CC1 [Example 30, 12-(4-{[(2S)-3-(9H-Carbazol-4-yloxy)-2-hydroxy-propylamino]-methyl}-piperidin-1-yl)-dodecan-1-ol] | 
9 | 238 to 240 °C (dec.) |  |  | O=C(O)c1cccc(NC(=O)N2CCC(CNC[C@H](O)COc3cccc4[nH]c5ccccc5c34)CC2)c1 [Example 51, 3-[(4-{[(2S)-3-(9H-Carbazol-4-yloxy)-2-hydroxy-propylamino]-methyl}-piperidine-1-carbonyl)-amino]-benzoic Acid] | 
